Where two headings read alike, the source gives them in different places. Where a SMILES comes first, the peptide text is derived from it. Bridges are numbered along the chain shown (N, C = ends). [ ]: non-standard residue; d: D form. pGlu = O=C1CC[C@@H](C(=O)O)N1
Tests used:
Format in all cases: cell-based
[1] = target: T1, α2β3γ2 GABAAR co-expressed with human UT (Homo sapiens, UniProt Q9UKP6); experiment: Patch-clamp of Iso-evoked current in CHO-UT co-expressing α2β3γ2 GABAAR (CHO-UT-GABAAR); details: for Current inhibition by GABAAR antagonists: SR95531 10^−5 M, picrotoxin 10^−4 M
T1 construct: expressed in transfected cells; host or cells: CHO-K1 stably expressing human UT (pIRES-neo2-UT), transiently nucleofected with GABAAR subunit cDNAs
T1 sequence (Q9UKP6 1-389): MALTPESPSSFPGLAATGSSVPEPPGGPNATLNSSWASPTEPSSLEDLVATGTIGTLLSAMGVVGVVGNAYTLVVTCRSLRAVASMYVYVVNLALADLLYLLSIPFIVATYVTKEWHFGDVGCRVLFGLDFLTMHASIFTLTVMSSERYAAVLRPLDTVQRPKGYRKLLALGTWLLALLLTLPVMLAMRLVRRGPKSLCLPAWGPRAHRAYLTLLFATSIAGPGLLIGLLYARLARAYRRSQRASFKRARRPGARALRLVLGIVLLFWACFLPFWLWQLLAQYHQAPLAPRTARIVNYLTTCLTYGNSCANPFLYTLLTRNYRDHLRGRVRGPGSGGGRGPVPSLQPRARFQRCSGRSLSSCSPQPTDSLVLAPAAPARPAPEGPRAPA
Protocol: CHO-K1 cell lines were obtained from American Type Culture Collection (Manassas, VA, USA). The human UT stable CHO (CHO-UT) was generously provided by Dr Christophe Dubessy (Inserm, Rouen University, France) et generated by CHO electroporation with 20 µg pIRES-neo2-UT DNA and 500 µg sterile sonicated salmon sperm DNA using the EasyJect One electroporation system (Equibio, Angleur, Belgium), followed by repetitive rounds of limiting dilution of cells in G-418 (400 µg/ml) for selection. Normal or stable CHO was grown in Ham-F12 medium supplemented with 10% FBS, 1% antibiotic-antimicotic solution and 2 mM glutamine, at 37°C in a humidified incubator with an atmosphere of 5% CO2. The stable CHO-UT medium was supplemented with the antibiotic G-418 (40 µg/ml).
(§1) For transfection, cells were trypsinized (0.05%), triturated in HamF-12 containing 10% FBS media, pelleted by centrifugation, resuspended in 100 µl solution V for nucleofection by an Amaxa Nucleofector Device (Köln, Germany; set to program U-016). Experiments were performed on normal CHO or on the stable CHO-UT cells and transiently transfected with combinations of cDNA encoding α2β3γ2, α2β3γ1, α2β1γ2, α2β3γ1, α2β3, β3γ2 (4 µg of cDNA total/transfection) GABAAR subunits. Cells were seeded on 14-mm poly-L-lysine-coated glass bottom insert dishes at 5×10^5 cells in a volume of 0.5 ml/dish. Cells were incubated overnight at 37°C in a humidified incubator (5% CO2) during 16 h before electrophysiological or immunocytochemical experiments.
(§2) GABAA receptor cDNA clones; α2, β1, β3, γ1 and γ2L engineered into the expression vector pCDM8 ([…], β1, γ2) or pcDNA/Amp (β3, γ1), were generously provided by Dr Wingrove (Merk Sharp and Dohme, Harlow, UK). To obtain β3 ^HA or γ2 ^HA epitope-tagged subunits, β3 or γ2 cDNA was amplified and the PCR product was subcloned using the SalI and NotI sites of pCMV-HA (Table S2) after digestion by the same restriction enzymes.
(§3) The conventional whole-cell configuration of the patch-clamp technique was used to study the GABA-gated currents in astrocytes and granule neurons, UT stably transfected CHO, CHO-UT, and CHO transiently transfected with diverse variants of UT and GABAAR subunits. After 24-h transfection, cell culture coverslips were placed in a small chamber (1.5 ml) on a stage of a right microscope DMLFSA (Leica, Heidelberg, Germany) and superfused continuously with the following bath solution containing (in mM): NaCl, 150; KCl, 2.5; HEPES, 5; CaCl2, 2; MgCl2, 1; glucose, 10 (pH 7.4 adjusted with NaOH). The patch pipettes were fabricated from 1.5 mm (outer diameter) soft glass tubes on a two-step vertical pipette puller (List-Medical, L/M-3P-A, Darmstadt, Germany). […] ATP and GTP were added to the internal solution used to fill electrode just before recording. All recordings were obtained at RT with cells voltage-clamped at −70 mV. The GABAA receptor agonist isoguvacine was prepared in the extracellular solution and was applied to cells by pneumatic pressure ejection. To prevent desenzitization, isoguvacine was more often ejected during 5 s at 2-min intervals. ATP, GTP, or guanosine 5′-O-(2-thiodiphosphate) (GDPβS) were administered through the patch pipette solution. We investigated the effect of competitive inhibition of GDP-GTP exchange by including GDPβS in the pipette solution (in addition to the normal amount of GTP). For GDPβS and the KIC, immediately following patch rupture, GABA current recordings were performed and the experiment was commenced after an equilibration period of 15 min.
All peptide ligands, inhibitors or allosteric modulators of the GABAA receptor function were applied via gravity through a plastic tubing positioned in the vicinity of the cell body in order to maintain a sustained perfusion. In these conditions, drugs could reach the cell of interest after 30 s of perfusion. Isoguvacine was applied focally by pneumatic pressure ejection from a micropipette.

[2] = target: T2, GABAAR in cerebellar astrocytes (UT co-expressed) (Rattus norvegicus, UniProt P49684); experiment: Whole-cell patch-clamp of isoguvacine (Iso)-evoked depolarization/chloride current in cerebellar astrocytes co-cultured with granule neurons; details: for inhibition at 0.1 µM: rUII 10^−7 M, 40 s, Iso 10^−4 M, mean ± SEM, n = 5
T2 construct: Astrocytes, recognized by strong GFAP staining show UT immunoreactivity; endogenous in cells; host or cells: primary rat (P7 Wistar) cerebellar astrocytes co-cultured with cerebellar granule neurons
T2 sequence (P49684 1-386): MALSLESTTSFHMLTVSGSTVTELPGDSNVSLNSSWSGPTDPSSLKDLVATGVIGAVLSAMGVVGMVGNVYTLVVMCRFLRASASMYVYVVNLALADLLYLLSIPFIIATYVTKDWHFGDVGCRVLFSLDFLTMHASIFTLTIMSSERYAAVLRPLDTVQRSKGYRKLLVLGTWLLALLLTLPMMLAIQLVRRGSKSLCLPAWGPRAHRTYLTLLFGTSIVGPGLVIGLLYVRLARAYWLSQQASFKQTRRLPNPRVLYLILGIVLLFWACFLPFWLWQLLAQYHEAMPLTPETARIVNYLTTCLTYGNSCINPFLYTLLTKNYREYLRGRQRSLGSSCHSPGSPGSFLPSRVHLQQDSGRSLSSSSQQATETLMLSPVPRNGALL
Protocol: Primary Cell Culture of astrocytes and astrocyte-neurone co-culture
Primary cultures of astrocytes were prepared as previously described. Briefly, cerebellum from 7-day-old (P7) Wistar rats were collected in DMEM/Ham-F12 (2∶1, v/v) culture medium supplemented with 2 mM glutamine, 1% insulin, 5 mM HEPES, 0.4% D(+)-glucose and 1% of the antibiotic-antimycotic solution. The tissues were disaggregated mechanically with a syringue equipped with a 1-mm gauge needle, and filtered through a 100-µm pore size mesh filter (Falcon, Becton Dickinson, Grenoble, France). Dissociated cells were resuspended in culture medium supplemented with 10% heat-inactivated FBS and seeded in 150-cm^2 culture flasks (Falcon) at a density of 20×10^6 cells/flask. Cells were incubated at 37°C in a humidified atmosphere (5% CO2) and the medium was changed twice a week. When cultures were confluent, the flasks were gently shaken on an orbital shaker at […] for 2 h. Dislodged cells were discarded and a second step of purification was performed at […] for 14–16 h. Remaining adhesive cells were collected by trypsination, centrifuged (800 g, 10 min) and plated in 150-cm^2 flasks. Suspended astrocytes were harvested and seeded in 24-well poly-L-lysine-coated plates. The purity of the cultures was previously assessed by counting the percentage of astrocytes immunostained with GFAP antibodies. The enriched cultures contained >99% astrocytes.
For astrocyte-neuron co-culture, granule cell cultures were prepared from cerebella of P7 Wistar rats as described previously. Isolated cells were plated on 14-mm culture dishes coated with poly-L-lysine (5 mM) at a density of 1.5×10^6 cells/dish and incubated at 37°C in a humidified atmosphere (5% CO2) for 1 to 10 days before use. Culture medium consisted of DMEM/Ham's F12 (75%/25%) supplemented with 10% FBS, 2 mM glutamine, 5 µg/ml insulin, 25 mM KCl and 1% of antibiotic-antimycotic solution. Co-cultures are obtained by seeding granule cells (1.5×10^6 cells/ml) on cerebellar astrocytes plated in 24-well plates after 12 hours. Co-cultures are maintained in the specific medium for neuron and incubated at 37°C in an humidified atmosphere (5% CO2) for several days.
as §3, with “min. […]” for “min.”

[3] = test system: α2β3γ2 GABAAR in the absence of UT; experiment: Patch-clamp of Iso-evoked current in CHO expressing α2β3γ2 GABAAR without UT; details: DMCM 10^−5 M; hUII and URP 10^−8 M; [Orn^5]-URP and palosuran 10^−6 M; Iso 10^−4 M, 2 s; n = 3–18
Protocol: as §1, §2
as §3, with “min. […]” for “min.”

## CCCC(C)C1(CC)C(=O)NC(=O)NC1=O (stereo not shown) [pentobarbital]
[1]; pentobarbital 10^−5 M, Figure S1A
  Direct activation of chloride current: directly activated a chloride current
[1]; pentobarbital 10^−5 M, reversible, Figure S1A
  Potentiation of the Iso-evoked current: 196.28±12.33%

## CC[C@H](C)[C@H](NC(=O)[C@@H]1CSSC[C@H](NC(=O)[C@H](CCC(=O)O)NC(=O)[C@@H]2CCCN2C(=O)[C@H](C)NC(=O)[C@@H](NC(=O)CNC(=O)[C@H](Cc2c[nH]cn2)NC(=O)[C@@H]2CCC(=O)N2)[C@@H](C)O)C(=O)N[C@@H](Cc2ccccc2)C(=O)N[C@@H](Cc2c[nH]c3ccccc23)C(=O)N[C@@H](CCCCN)C(=O)N[C@@H](Cc2ccc(O)cc2)C(=O)N1)C(=O)O [rUII] ([pGlu]HGTAPECFWKYCI-OH; disulfide 8-13)
[2]; astrocytes, printed with a % sign before pM, read-out: EC50 for inhibition of the Iso-evoked current
  EC50: 43.6 ± 23.7 pM
[2]; co-cultured astrocytes, read-out: Inhibition of the amplitude of the Iso-evoked depolarization
  inhibition at 0.1 µM: 24.2 ± 7.5%
[2]; voltage clamp −60 mV, read-out: Inhibition of the amplitude of the Iso-evoked chloride current
  inhibition at 0.1 µM: 33 ± 8%

## picrotoxin
[1]; Figure S1A
  Current inhibition by GABAAR antagonists: 56.76±4.33%

## CCc1c(C(=O)OC)ncc2[nH]c3cc(OC)c(OC)cc3c12 [DMCM, methyl 6,7-dimethoxy-4-ethyl-β-carboline-3-carboxylate]
[3]
  Effect on Iso-evoked current in the absence of UT: induced inhibition of the current in most tested cells

## O=C(O)CN(CC(=O)O)c1ccccc1OCCOc1ccccc1N(CC(=O)O)CC(=O)O [BAPTA]
[1]; BAPTA 10^−4 M intracellular dialysis, n = 9
  Reduction of hUII-induced long-term current inhibition: 39.29±10.16%

## Br.COc1ccc(-c2ccc(=N)n(CCCC(=O)O)n2)cc1 [SR95531]
[1]; Figure S1A
  Current inhibition by GABAAR antagonists: 76.92±10.35%

B1: UT^c-myc 319–389: peptidomimetic corresponding to the entire C-terminus cytosolic fragment of UT (protein, UniProt Q9UKP6 319-389, looked up, fragment)
chain: TRNYRDHLRGRVRGPGSGGGRGPVPSLQPRARFQRCSGRSLSSCSPQPTDSLVLAPAAPARPAPEGPRAPA
modifications: c-myc tag
[1]; UT^c-myc 319–389 expressed in CHO-UT-GABAAR, hUII 10^−8 M
  Effect of UT C-terminal peptidomimetic on fast and long-term effects of hUII on GABA-evoked current: completely inhibited the fast and long-term effects of hUII on the GABA-evoked current

Source: publication PMC3341351, “Down-Regulation of GABAA Receptor via Promiscuity with the Vasoactive Peptide Urotensin II Receptor. Potential Involvement in Astrocyte Plasticity” (PLoS ONE, 2012)
